The results in this text go back to article PMC5218480 (PLoS ONE, 2017).

Read-outs that look alike come from different tables or passages of the source.

One experiment concerns the target T1, HDAC3 (Homo sapiens, UniProt O15379).
T1 construct: purchased BPS Biosciences
Nature of the experiment: HDAC enzyme assay, in vitro biochemical. The conditions noted are these: pre-incubated 24 hours at 4°C; n = 3; read-out: IC50 against HDAC3. On the procedure:
(§1) In vitro biochemical assays were performed as described previously. Specifically, compounds were dissolved and diluted in assay buffer (50 mM HEPES, pH 7.4, 100 mM KCl, 0.001% Tween-20, 0.05% BSA, and 20 μM Tris (2-carboxyethyl) phosphine) to 6-fold the final concentration. […] The amount of substrate (acetyl-lysine tripeptide) used for each enzyme was equal to the Michaelis constant (Km), as determined by a titration curve. Substrate was diluted in assay buffer to 6-fold of the final concentration with 0.3 μM sequencing grade trypsin (Sigma-Aldrich). The substrate/trypsin mix was added to the enzyme/compound mix and the plate was shaken for 5 seconds and then placed into a SpectraMax M5 microtiter (Molecular Devices) plate reader. The enzymatic reaction was monitored over 30 minutes for release of […] after deacetylation of the lysine side chain in the peptide substrate, and the linear rate of the reaction was calculated.

The next experiment concerns the target T2, HDAC1 (Homo sapiens, UniProt Q13547).
T2 construct: purchased BPS Biosciences
Nature of the experiment: HDAC enzyme assay, in vitro biochemical. How it is done: as §1

The target in another experiment is T3, HDAC2 (Homo sapiens, UniProt Q92769).
T3 construct: purchased BPS Biosciences
T3 sequence (Q92769 whole entry): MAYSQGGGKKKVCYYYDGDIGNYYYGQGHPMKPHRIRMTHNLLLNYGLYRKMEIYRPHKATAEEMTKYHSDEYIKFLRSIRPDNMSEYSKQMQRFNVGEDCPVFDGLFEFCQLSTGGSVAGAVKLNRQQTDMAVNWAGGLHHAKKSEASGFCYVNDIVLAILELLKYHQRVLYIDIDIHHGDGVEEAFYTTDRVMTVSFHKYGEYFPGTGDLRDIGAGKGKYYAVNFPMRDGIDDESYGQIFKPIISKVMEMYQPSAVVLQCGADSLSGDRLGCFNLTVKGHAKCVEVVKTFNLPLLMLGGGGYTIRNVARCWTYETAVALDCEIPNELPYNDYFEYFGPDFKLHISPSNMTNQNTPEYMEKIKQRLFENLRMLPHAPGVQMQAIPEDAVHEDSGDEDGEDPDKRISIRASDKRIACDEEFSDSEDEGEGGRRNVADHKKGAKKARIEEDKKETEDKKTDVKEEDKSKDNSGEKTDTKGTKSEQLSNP
Nature of the experiment: HDAC enzyme assay, in vitro biochemical. On the procedure: as §1

The subject of the next experiment is MV-4-11 cells. Description: Cell viability assay (CellTiter-Glo), single agent and combination. The conditions noted are these: read-out: IC50 cell viability MV-4-11; 72 hours. (In general: In ATP-based viability assays light output follows the ATP content of the culture.)
The test system of another experiment is Kasumi-1 cells. Nature of the experiment: Cell viability assay (CellTiter-Glo). The following applies: read-out: IC50 cell viability Kasumi-1; 72 hours.
The test system of another experiment is HL-60 cells. Nature of the experiment: Cell viability assay (CellTiter-Glo). The following applies: read-out: IC50 cell viability HL-60; 72 hours.
Experiment [1] relates to MV-4-11 and HL-60 cells. Nature of the experiment: Flow cytometry, apoptosis (Annexin V). Format: cell-based, human. The following applies: single agent, 96 hours. How it is done:
(§2) All compounds and/or solvent DMSO were added concurrently at the indicated doses. Flow cytometry was performed to measure surface level of CD11b, cell cycle distribution, and induction of apoptosis. CD11b and apoptosis were analyzed on a FC500 flow cytometer ([…]) and cell cycle profiled on an Attune NxT (Life Technologies).
Annexin V-positive populations were quantified.
For orientation: Flow cytometry measures light scatter and fluorescence of single cells or particles in a stream.

For experiment [2], the system named is five human AML cell lines (MV-4-11, Kasumi-1, HL-60, MOLM-13, NB-4). Description: Cell viability assay, summary over five human AML cell lines. The following applies: 72 hours.
Protocol: (§3) MV-4-11, Kasumi-1, and HL-60 AML cell lines were all obtained from ATCC. MOLM-13 and NB-4 cell lines were obtained from DSMZ. […] The identity of each cell line was validated and documented by the suppliers. All experiments were performed with cells maintained at low passage numbers.
(§4) Compounds and/or solvent dimethyl sulfoxide (DMSO) were added at the same time using an HP D300 digital dispenser (Hewlett Packard) in triplicate or quadruplicate and incubated for 72 hours at 37°C. Viability was measured by adding 25 μL CellTiter-Glo (Promega), incubating for 10 minutes, and measuring luminescence on a SpectraMax (Molecular Devices). […] CI < 1 indicates synergism, CI = 1 indicates additivity, and CI > 1 indicates antagonism.
Experiment [3] relates to MV-4-11, Kasumi-1 and HL-60 cell lines. Description: Histone acetylation by immunoblotting. The following applies: 24 hours, increasing doses. Format: cell-based, human. From the text: The EpiQuick Total Histone Extraction kit (Epigentek) was used to isolate histones. Histone lysates were size separated on Bolt 10% Bis-Tris gradient gels (Life Technologies), transferred to polyvinylidene difluoride membranes, blocked in 5% BSA, and detected using standard western blotting techniques.
In general terms: Immunoblotting shows a protein as a band on a membrane.

For experiment [4], the system named is MV-4-11 and HL-60 cells. Description: Flow cytometry, cell cycle (EdU, S phase). The conditions noted are these: single agent, 72 hours. The class given is cell-based, human. On the procedure: as §2
EdU labeled cells were then mixed with FxCycle Far Red Stain (Life Technologies) and 100 μg RNase A cocktail (Life technologies) for 30 minutes before flow cytometry analysis. Edu positive populations representing S phase cells were quantified.

A further experiment has as its system MOLM-13 cells. Description: Cell viability assay (CellTiter-Glo), single agent and combination. The conditions noted are these: read-out: IC50 cell viability MOLM-13; 72 hours.
The test system of experiment [5] is MV-4-11 and HL-60 cells. Description: Quantitative real time PCR (qPCR) of CDKN1A, CDKN1C, GATA2, HES1. The following applies: MV-4-11 and HL-60, 48 hours. Format: cell-based, human. On the procedure: RNA isolations were performed on a Qiacube (Qiagen) using the RNeasy Micro Kit (Qiagen) according to manufacturer’s protocol. RNA was converted to cDNA using the High Capacity RNA-to-cDNA Kit (Life Technologies) and qPCR performed using the Taqman Gene Expression Max Mix according to manufacturer’s protocol (Applied Bioscience). The following ThermoFisher taqman probes were used: GATA2 (Hs01060665_g1), GAPDH (Hs0275899_g1), ACTB (Hs00231119_m1), CDKN1A (Hs00355782_m1), CDKN1C (Hs00175938_m1), HES1 (Hs00172878_m1).

The subject of experiment [6] is MV-4-11 and HL-60 cells. Nature of the experiment: Flow cytometry, surface level of CD11b (differentiation). The class given is cell-based, human. The conditions noted are these: single agent, 72 hours. How it is done:
as §2
The frequency of CD11b positive cells out of total viable cells identified by forward and side scatter profile was quantified.

In the next experiment the test system is NB-4 cells. Description: Cell viability assay (CellTiter-Glo). The conditions noted are these: read-out: IC50 cell viability NB-4; 72 hours.
Experiment [7] deals with live leukemic cells of fresh bone marrow samples from AML patients. The following applies: read-out: mean IC50, proliferation of primary leukemic cells; 96 hours, n = 38 patient samples.

T2 sequence (Q13547 whole entry): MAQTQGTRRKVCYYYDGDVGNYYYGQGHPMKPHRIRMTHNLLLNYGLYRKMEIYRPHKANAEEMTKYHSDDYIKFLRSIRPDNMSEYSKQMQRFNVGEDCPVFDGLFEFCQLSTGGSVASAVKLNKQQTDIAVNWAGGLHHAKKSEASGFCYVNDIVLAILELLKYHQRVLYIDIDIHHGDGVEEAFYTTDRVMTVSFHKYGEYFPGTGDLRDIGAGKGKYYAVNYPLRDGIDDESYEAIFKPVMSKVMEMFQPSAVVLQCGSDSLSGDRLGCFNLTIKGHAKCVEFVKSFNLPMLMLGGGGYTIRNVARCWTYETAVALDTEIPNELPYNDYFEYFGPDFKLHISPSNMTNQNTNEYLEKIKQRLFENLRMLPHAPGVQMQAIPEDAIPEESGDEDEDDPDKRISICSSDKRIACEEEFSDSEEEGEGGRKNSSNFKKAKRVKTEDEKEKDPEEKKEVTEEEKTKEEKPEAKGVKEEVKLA
T1 sequence (O15379 whole entry): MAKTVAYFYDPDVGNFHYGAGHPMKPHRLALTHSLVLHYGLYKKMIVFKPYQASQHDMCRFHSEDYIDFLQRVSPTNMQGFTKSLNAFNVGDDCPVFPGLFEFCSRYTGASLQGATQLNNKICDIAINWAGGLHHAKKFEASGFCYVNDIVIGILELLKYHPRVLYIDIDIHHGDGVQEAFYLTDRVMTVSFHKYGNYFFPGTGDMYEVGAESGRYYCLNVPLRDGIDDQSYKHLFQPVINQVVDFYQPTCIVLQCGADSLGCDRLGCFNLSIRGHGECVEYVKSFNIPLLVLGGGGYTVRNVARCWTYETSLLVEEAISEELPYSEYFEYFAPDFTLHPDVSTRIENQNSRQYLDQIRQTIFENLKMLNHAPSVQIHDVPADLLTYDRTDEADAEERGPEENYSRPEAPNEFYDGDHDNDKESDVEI
T1 sequence (Q9Y618 395-489 partner limits assumed): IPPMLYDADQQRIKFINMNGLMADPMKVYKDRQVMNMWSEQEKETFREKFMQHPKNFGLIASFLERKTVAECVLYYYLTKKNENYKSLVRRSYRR
Protocol for Kasumi-1 cells: as §3, §4
Protocol for MOLM-13 cells: as §3, §4
Protocol for MV-4-11 cells: as §3, §4
Protocol for NB-4 cells: as §3
Compounds and/or solvent dimethyl sulfoxide (DMSO) were added at the same time using an HP D300 digital dispenser (Hewlett Packard) in triplicate or quadruplicate and incubated for 72 hours at 37°C. Viability was measured by adding 25 μL CellTiter-Glo (Promega), incubating for 10 minutes, and measuring luminescence on a SpectraMax (Molecular Devices).

As to `Nc1ccc(-c2cccs2)cc1NC(=O)c1ccc2nc(N3CCNCC3)ccc2c1` [ACY-957], the IC50 on HDAC3 was 1160 nM; on HDAC1 (pre-incubated 24 hours at 4°C, n = 3, read-out: IC50 against HDAC1), 7.2 nM; on HDAC2 (pre-incubated 24 hours at 4°C, n = 3, read-out: IC50 against HDAC2) it was 26 nM; in the experiment with MV-4-11 cells, 800 nM; with Kasumi-1 cells it was 1600 nM; in the experiment on HL-60 cells, 2200 nM. In addition, the IC50 in [2] (read-out: IC50 values cell viability, range, five human AML cell lines, both compounds) was 800 to 3300 nM; in experiment [2] (read-out: average IC50 value, viability of AML cells, average of five AML cell lines) it was 1500 nM; in the experiment with MOLM-13 cells, 1600 nM; in the experiment on NB-4 cells, 1600 nM; in experiment [7], 1100 nM. Besides, the “selectivity for HDAC1 over HDAC3” value on HDAC1 was “more than 150 fold”. Besides, the “selectivity for HDAC2 over HDAC3” value on HDAC2 is listed as “approximately 50 fold”. In addition, the “apoptosis, staining for annexin V” value in the experiment with MV-4-11 and HL-60 cells [1] is reported as “increased staining for annexin V”. In [3], the “acetylation on histone H2B lysine 5 (H2BK5ac) and histone H3 lysine 56 (H3K56ac)” value is listed as “dose-dependent accumulation”. Moreover, in the experiment on MV-4-11 and HL-60 cells [4], the “cells in S phase” value was “dose-dependent reduction of cells in S phase”. The “expression of CDKN1A, CDKN1C, GATA2 and HES1 (qPCR)” value with MV-4-11 and HL-60 cells [5] is “up-regulated”. Further, the “differentiation, surface expression of CD11b” value with MV-4-11 and HL-60 cells [6] is “dose-dependent induction of differentiation”.
